Our source for the Ki values is BindingDB's records for doi:10.1073/pnas.71.5.1725 (1974).

pKi: −log10 of the molar value.

This test has as its target T1, Muscarinic acetylcholine receptor M2 (Rattus norvegicus, UniProt P10980).
T1 sequence (P10980 whole entry): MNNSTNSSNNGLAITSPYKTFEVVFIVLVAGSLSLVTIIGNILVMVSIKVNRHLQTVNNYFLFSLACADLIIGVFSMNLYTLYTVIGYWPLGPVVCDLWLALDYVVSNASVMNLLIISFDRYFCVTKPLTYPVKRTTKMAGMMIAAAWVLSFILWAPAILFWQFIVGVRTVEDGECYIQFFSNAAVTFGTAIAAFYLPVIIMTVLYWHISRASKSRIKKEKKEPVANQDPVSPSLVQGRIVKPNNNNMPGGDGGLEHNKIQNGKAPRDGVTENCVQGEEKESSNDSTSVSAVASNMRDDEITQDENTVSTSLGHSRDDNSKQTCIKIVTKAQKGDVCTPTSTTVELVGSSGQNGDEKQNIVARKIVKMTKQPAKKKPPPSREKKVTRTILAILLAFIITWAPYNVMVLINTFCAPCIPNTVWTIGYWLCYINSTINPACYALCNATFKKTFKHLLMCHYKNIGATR
For the compound `O=C(O)C=CC(=O)Oc1ccc(Cl)cc1` [NSC_6445134], the pKi (usually the negative decadic logarithm of the Ki, by convention in mol/L) is less than 5.00.

For the compound `CC(C)[N+](C)(CCC(C(N)=O)(c1ccccc1)c1ccccc1)C(C)C`, the pKi is 9.00.

`CN(C)CCC(c1ccc(Cl)cc1)c1ccccn1` (stereo not given) [clorfeniramina] showed a negative-log Ki (pKi) of less than 5.00.

On to `CN(C)CCC(c1ccc(Br)cc1)c1ccccn1` (stereo not drawn) [2-(p-bromo-alpha-(2-dimethylaminoethyl)benzyl)pyridine], for which the pKi is less than 5.00.

Regarding `O=C1CCCN1CC#CCN1CCCC1` [1-[4-(2-oxo-pyrrolidin-1-yl)-but-2-ynyl]-pyrrolidinium], the pKi is 6.30.
